The nature of series [1]: Half life in ICR mouse at 3 mg/kg, po measured upto 24 hrs by LC-MS/MS analysis. The series is classed as ADME, organism-based. The following applies: in vivo.
Series [2] deals with CAL-27. Nature of the series: Induction of apoptosis in human CAL-27 cells assessed as early apoptotic cells at 100 nM incubated for 72 hrs by Annexin V-FITC/propidium iodide staining based flow cytometry analysis (reference value: 7.74%). The class given is functional. (A flow cytometer gives signals particle by particle.)
Series [3] can be described thus: Toxicity in BALB/c mouse xenografted with human CAL-27 cells assessed as body weight at 0.6 mg/kg, iv treated four times a week for 30 days. The class given is organism-based. The following applies: in vivo, 720 h, time 30 day.
Series [4] concerns CAL-27. Briefly: Effect on cell cycle in human CAL-27 cells assessed as regulation of gene expression at 1 nM incubated for 48 hrs by GSEA analysis. The class given is functional, cell-based.
The test system of series [5] is CAL-27. Nature of the series: Induction of apoptosis in human CAL-27 cells assessed as early apoptotic cells at 1000 nM incubated for 72 hrs by Annexin V-FITC/propidium iodide staining based flow cytometry analysis (reference value: 7.74%). The series is classed as functional.
Series [6] concerns CAL-27. Nature of the series: Induction of apoptosis in human CAL-27 cells assessed as late apoptotic cells at 10 nM incubated for 72 hrs by Annexin V-FITC/propidium iodide staining based flow cytometry analysis (reference value: 2.57%). The series is classed as functional.
In series [7] the test system is CAL-27. Nature of the series: Induction of apoptosis in human CAL-27 cells assessed as early apoptotic cells at 1000 nM incubated for 72 hrs by Annexin V-FITC/propidium iodide staining based flow cytometry analysis (reference value: 9.16%). The class given is functional.
The test system of series [8] is CAL-27. Nature of the series: Induction of apoptosis in human CAL-27 cells assessed as late apoptotic cells at 1 nM incubated for 72 hrs by Annexin V-FITC/propidium iodide staining based flow cytometry analysis (reference value: 2.57%). The series is classed as functional.
For series [9], the system named is CAL-27. Nature of the series: Induction of apoptosis in human CAL-27 cells assessed as early apoptotic cells at 100 nM incubated for 72 hrs by Annexin V-FITC/propidium iodide staining based flow cytometry analysis (reference value: 9.16%). The series is classed as functional.
Series [10] deals with CAL-27. Nature of the series: Induction of apoptosis in human CAL-27 cells assessed as early apoptotic cells at 10 nM incubated for 72 hrs by Annexin V-FITC/propidium iodide staining based flow cytometry analysis (reference value: 9.16%). The class given is functional.

Usually half-life stands for how long it takes for the measured level to halve.

Activity calls are given as the source filed them. No cut-off for these calls is given here.

For `COc1cc2c(O[C@@H]3O[C@@H]4CO[C@@H](c5ccsc5)O[C@H]4[C@H](O)[C@H]3O)c3c(c(-c4ccc5c(c4)OCO5)c2cc1OC)C(=O)OC3`, in [1], the half-life is 31 min. In addition, the Activity with CAL-27 [2] was 27.61%; in [3], “Non-toxic”; with CAL-27 [5] it was 25.35%. Also, the outcome in the series on CAL-27 [4] was Active.
Turning to `COc1cc2c(O)c3c(c(-c4ccc5c(c4)OCO5)c2cc1OC)C(=O)OC3` [DIPHYLLIN], the Activity in the series on CAL-27 [6] was found to be 1.34%; in the series on CAL-27 [7], 12.06%; in the series on CAL-27 [8] it was 5.83%; in the series with CAL-27 [9], 4.87%; with CAL-27 [10] it was 3.78%.

Values taken from ChEMBL document CHEMBL6153048, “Synthesis and pharmacological evaluation of natural product diphyllin derivatives against head and neck squamous cell carcinoma” (Eur J Med Chem, 2025).
